In PubChem BioAssay (NCI):
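How tested: cells in 96-well plates exposed to compound for 48 hours at five concentrations. TGI marks complete inhibition of growth.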

What was measured:
Assay in all cases: NCI tumour cell line growth inhibition, 48 h
[1] = test system: ACHN renal
[2] = test system: BT-549 breast
[3] = test system: COLO 205 colon
[4] = test system: HCT-116 colon
[5] = test system: HOP-62 NSCLC
[6] = test system: LOX IMVI melanoma
[7] = test system: M14 melanoma
[8] = test system: MDA-MB-435
[9] = test system: NCI-H226 lung
[10] = test system: NCI-H522 lung
[11] = test system: OVCAR-4 ovarian
[12] = test system: OVCAR-8 ovarian
[13] = test system: SF-539 CNS
[14] = test system: SK-OV-3 ovarian
[15] = test system: SN12C renal
[16] = test system: SW-620 colon
[17] = test system: TK-10 renal
[18] = test system: UACC-62 melanoma

SMILES | TGI [1] | TGI [2] | TGI [3] | TGI [4] | TGI [5] | TGI [6] | TGI [7] | TGI [8] | TGI [9] | TGI [10] | TGI [11] | TGI [12] | TGI [13] | TGI [14] | TGI [15] | TGI [16] | TGI [17] | TGI [18]
O=C(O[C@H](/C=C/c1ccccc1)P1(=O)N(Cc2ccccc2)[C@H]2CCCC[C@@H]2N1Cc1ccccc1)c1ccccc1 | > 100 µM | > 100 µM | 3.27 µM | 17 µM | > 100 µM | 11.6 µM | > 100 µM | 46.2 µM | 7.85 µM | > 100 µM | 6.19 µM | > 100 µM | > 100 µM | > 100 µM | 14.5 µM | > 100 µM | > 100 µM | > 100 µM
O=C(Cc1csc2[n+]1C(=O)/C(=C/c1ccc(Cl)cc1)S2)Nc1ccccc1 | 61.6 µM | 60.3 µM | 30.2 µM | 42.5 µM | 30.4 µM | 34.4 µM | > 100 µM | 95 µM | 49.6 µM | 40.5 µM | > 100 µM | > 100 µM | 84.2 µM | 99.5 µM | > 100 µM | > 100 µM | 87.7 µM | 32 µM
O=[N+]([O-])c1ccc(C2Nn3c(nnc3-c3cccc([N+](=O)[O-])c3)S2)cc1 (stereo not given) | > 100 µM | > 100 µM | > 100 µM | > 100 µM | > 100 µM | > 100 µM | > 100 µM | > 100 µM | > 100 µM | > 100 µM | > 100 µM | > 100 µM | > 100 µM | > 100 µM | > 100 µM | > 100 µM | > 100 µM | > 100 µM
CC(C)=NC(C(=O)O)C(C)(C)S (stereo not given) | > 100 µM | > 100 µM | > 100 µM | > 100 µM | > 100 µM | > 100 µM | > 100 µM | > 100 µM | > 100 µM | > 100 µM | > 100 µM | > 100 µM | > 100 µM | > 100 µM | > 100 µM | > 100 µM | > 100 µM | > 100 µM
CNc1ccc(C)cc1S(=O)(=O)c1ccccc1[N+](=O)[O-] | > 100 µM | > 100 µM | > 100 µM | > 100 µM | > 100 µM | > 100 µM | > 100 µM | > 100 µM | > 100 µM | > 100 µM | 92 µM | > 100 µM | > 100 µM | > 100 µM | > 100 µM | > 100 µM | > 100 µM | > 100 µM
C=CC(=O)C#Cc1cnc(OC)nc1OC | 23.6 µM | 17.5 µM | 13.3 µM | 26.1 µM | 45.7 µM | 20.5 µM | 37.7 µM | 51.5 µM | > 92.7 µM | 42.7 µM | 42.3 µM | > 73.6 µM | 30.5 µM | > 100 µM | 37.7 µM | 23.4 µM | 35.2 µM | 34.4 µM
O=c1c2ccccc2nc(-c2ccccc2)n1/N=C/c1ccccc1[N+](=O)[O-] | > 100 µM | > 100 µM | > 100 µM | > 100 µM | 37.1 µM | > 100 µM | > 100 µM | > 100 µM | > 100 µM | > 100 µM | > 100 µM | > 100 µM | > 100 µM | > 100 µM | > 100 µM | > 100 µM | > 59.6 µM | > 100 µM
CC(=O)OC1CCn2c1nc1c2C(=O)C=C(N2CC2)C1=O (stereo not given) | 0.173 µM | 2.54 µM | 0.219 µM | 0.781 µM | 4.69 µM | 0.275 µM | 0.186 µM | 1.71 µM | 6 µM | 0.124 µM | 0.231 µM | 1.57 µM | 0.696 µM | 6.15 µM | 1.86 µM | 0.146 µM | 0.86 µM | 0.214 µM
Cc1cc2c(cc1Cl)SC(NNC(=O)c1ccccc1)=NS2(=O)=O | > 10 µM | > 10 µM | > 10 µM | > 10 µM | > 10 µM | > 10 µM | > 10 µM | > 10 µM | > 10 µM | > 10 µM | > 10 µM | > 10 µM | > 10 µM | > 10 µM | > 10 µM | > 10 µM | > 10 µM | > 10 µM
COC(=O)c1ccccc1C1CN=NC12Cc1cc3c(cc1C2=O)CCC3 (stereo not given) | > 100 µM | > 100 µM | > 100 µM | > 100 µM | > 100 µM | > 100 µM | > 100 µM | > 100 µM | > 100 µM | > 100 µM | > 100 µM | > 100 µM | > 100 µM | > 100 µM | > 100 µM | > 100 µM | > 100 µM | > 100 µM
O=[N+]([O-])c1ccc(C2=NOC(c3ccccc3)N2C23CC4CC(CC(C4)C2)C3)cc1 (stereo not given) | > 100 µM | 46 µM | 88.1 µM | 63.9 µM | 80.2 µM | 29.3 µM | 88.4 µM | 44.5 µM | 89.9 µM | 35.3 µM | > 100 µM | 48.4 µM | > 100 µM | > 100 µM | > 100 µM | > 100 µM | > 100 µM | 85.8 µM
CC(=O)Nn1c(Cc2ccc(Cl)cc2)nn(C)c1=O | > 100 µM | > 100 µM | > 100 µM | > 100 µM | > 100 µM | > 100 µM | > 100 µM | > 100 µM | > 100 µM | > 100 µM | > 100 µM | > 100 µM | > 100 µM | > 100 µM | > 100 µM | > 100 µM | > 100 µM | > 100 µM
COC1=CC(=O)C2=C(C1=O)[C@H]1CC[C@]3(C)C(=O)CC[C@H]3[C@@H]1CC2 | 79.3 µM | 71.2 µM | > 100 µM | 34.1 µM | > 100 µM | 35.4 µM | > 100 µM | 45.6 µM | 49.7 µM | 59.8 µM | 29.5 µM | 33.1 µM | 38.1 µM | > 100 µM | 44.5 µM | 67.7 µM | > 100 µM | > 100 µM
CN(C)/C=N/c1cc(=O)n(C)c(=O)n1C | > 100 µM | > 100 µM | > 100 µM | > 100 µM | > 100 µM | > 100 µM | > 100 µM | > 100 µM | > 100 µM | > 100 µM | > 100 µM | > 100 µM | > 100 µM | > 100 µM | > 100 µM | > 100 µM | > 100 µM | > 100 µM
CN1CCOC1(C)c1ccccc1 (stereo not given) | > 100 µM | > 100 µM | > 100 µM | > 100 µM | > 100 µM | > 100 µM | > 100 µM | > 100 µM | > 100 µM | > 100 µM | > 100 µM | > 100 µM | > 100 µM | > 100 µM | > 100 µM | > 100 µM | > 100 µM | > 100 µM
COc1ccc(/C(=N/Nc2nc3ccccc3n2Cc2ccccc2)C(=O)O)cc1 | > 100 µM | > 100 µM | > 100 µM | > 100 µM | > 100 µM | 35.5 µM | 38.9 µM | > 100 µM | 63 µM | 68.8 µM | 62.2 µM | > 100 µM | 85.1 µM | 55 µM | > 100 µM | > 100 µM | > 100 µM | 21.4 µM
COC(=O)C1=C(N)C2=C(N)Oc3ccccc3C2CC1=C(C#N)C#N (stereo not given) | 72.8 µM | 58.2 µM | 44.1 µM | 99.2 µM | > 100 µM | 44.2 µM | 43.3 µM | > 100 µM | > 100 µM | 40.7 µM | 76.1 µM | 55.7 µM | 71.2 µM | > 100 µM | 92.6 µM | > 100 µM | 52 µM | 36.3 µM
COc1ccc(NCc2cccc3c(=O)c4ccc(Cl)cc4oc23)cc1 | > 100 µM | > 100 µM | > 100 µM | > 100 µM | > 100 µM | > 100 µM | > 100 µM | > 100 µM | > 100 µM | > 100 µM | > 100 µM | > 100 µM | > 100 µM | > 100 µM | > 100 µM | > 100 µM | > 100 µM | > 100 µM
O=C1NC(=Nc2ccccc2Cl)N/C1=C\c1c(Cl)cccc1Cl | > 100 µM | > 100 µM | 56.2 µM | 67.1 µM | > 100 µM | > 100 µM | > 100 µM | > 100 µM | > 100 µM | 58.7 µM | 49.3 µM | > 100 µM | > 100 µM | > 100 µM | 84.6 µM | > 100 µM | 71.7 µM | > 100 µM
COC(=O)c1cc(C#N)[nH]c1-c1ccc(Br)s1 | 31.9 µM | 22.8 µM | 29.1 µM | 26.3 µM | 21.4 µM | 23.1 µM | 22.9 µM | 34.5 µM | 26.3 µM | 19.6 µM | 36.7 µM | 27.1 µM | 27.2 µM | 24.7 µM | 26 µM | 29.9 µM | 25.7 µM | 26 µM
O=C(NCCc1ccccn1)c1ccc2cc(C(=O)N3CC(CCl)c4ccc([N+](=O)[O-])cc43)[nH]c2c1 (stereo not given) | > 100 µM | > 100 µM | > 100 µM | > 100 µM | 48.4 µM | > 100 µM | > 100 µM | > 100 µM | > 100 µM | > 86.7 µM | 48.3 µM | > 86.9 µM | > 100 µM | 46 µM | > 100 µM | > 100 µM | 66.7 µM | > 67.4 µM
C[C@H]1[C@H]2[C@H](C[C@@]3(C)C4=CC[C@H]5C(C)(C)[C@@H](OC6OCC(O)C(O)C6O)CC[C@@]56C[C@@]46CC[C@]23C)O[C@@]2(O)[C@@H]1OC(C)(C)[C@H]2O (stereo not given in full) | 6.35 µM | 8.78 µM | 16.1 µM | 4.21 µM | 5.7 µM | 6.28 µM | 10.7 µM | 2.17 µM | 6.73 µM | 2.42 µM | 7.17 µM | 1.81 µM | 6.88 µM | 4.55 µM | 2.75 µM | 3.74 µM | 3.95 µM | 5.32 µM
CC(=O)n1nc(-c2[nH]c(C)c(-c3nn(C(C)=O)c(=S)o3)c2C)oc1=S | > 100 µM | > 100 µM | > 100 µM | > 100 µM | > 100 µM | > 100 µM | > 100 µM | > 100 µM | > 100 µM | > 100 µM | > 100 µM | > 100 µM | > 100 µM | > 100 µM | > 100 µM | > 100 µM | > 100 µM | > 100 µM
NC(=S)NN=Cc1ccccc1OCc1cccc(COc2ccccc2C=NNC(N)=S)n1 | > 100 µM | 31 µM | > 100 µM | > 93.6 µM | 35.3 µM | > 100 µM | > 100 µM | > 100 µM | > 89.6 µM | > 100 µM | > 100 µM | > 100 µM | > 34.6 µM | 29.6 µM | > 100 µM | > 100 µM | 32.3 µM | > 100 µM
O=c1c2c3c(sc2nc2n1sc1nc4sc5c(c4c(=O)n12)CCCC5)CCCC3 | > 100 µM | 42.4 µM | 64.7 µM | > 100 µM | > 100 µM | > 100 µM | > 100 µM | > 100 µM | 98.1 µM | 31.1 µM | 37.2 µM | > 100 µM | > 100 µM | > 100 µM | > 100 µM | 63.5 µM | > 100 µM | > 100 µM
